Melting point data for 89 molecules are collected here from a melting point compilation (Tetko et al.; mined from patent text by program, amines drawn as free bases though some values may be those of a salt).

In general, melting point refers to the temperature, or range, at which the solid turns liquid. As for `O=Cc1cnn(-c2ccc(C(F)(F)F)cc2[N+](=O)[O-])c1Br`, the melting point was in the range of 195 to 198 °C. Molecule `CC(C)(C)OC(=O)N1CCC2(CC1)C(=O)NCN2c1ccccc1` registered a melting point of 213 to 214 °C. Turning to `C[C@@H](n1cnc2cc(C=NNS(N)(=O)=O)ccc2c1=O)[C@](O)(Cn1cncn1)c1ccc(F)cc1F`, the melting point was in the range of 202 to 206 °C.

The molecule `CCOC(=O)CCC(=O)c1ccc(C2CCCCC2)cc1` displayed a melting point of 54 to 55 °C. To `CCOC(=O)CCCCCOc1cc(C=CC2=C(C#N)C(=C(C#N)C#N)OC2(C)C)ccc1N` belongs 164 °C. The same measure for `COc1cc(N)c(Cl)cc1Br`: 40 to 41 °C; for `Cc1cc(-c2nncc3c(C(C)(C)C)c(OCc4ncnn4C)nn23)no1`: 171 to 174 °C; for `COc1ccc(-c2cc(C)nn2-c2ccc([N+](=O)[O-])cc2)cc1`: 155 to 158 °C. In turn, `CC(=O)c1ccc2nc3n(c2c1)CCC(=O)N3` came in with a melting point of more than 320 °C.

`CCOP(=O)(/C=C/c1cn(-c2ccccc2)nc1OCc1ccc(OCc2nc(/C=C/C(=O)O)oc2C)c(OC)c1)OCC` displayed a melting point of 89 to 90 °C.

`CC(=O)Nc1ccc(/C=C/C(=O)O)cn1` yielded a melting point of 291 to 292 °C.

Consider `N#CC(=Cc1ccc(O)c(O)c1)C(N)=S`, for which the melting point came to 213 °C. `CNC(=O)c1c(-c2ccccn2)c2ccccc2n(C)c1=O` had a melting point of 239 to 240 °C. `O=Cc1ccc2[nH]c(C(=O)OCc3ccccc3)cc2c1`: the melting point was found to be 172 °C. With `C=CCSc1ccc2[nH]c(NC(=O)OC)nc2c1`, the melting point lay in the range of 197 to 198 °C. Molecule `O=C(NC(Cc1ccccc1)C(=O)C(F)(F)F)c1ccccc1` (racemic) yielded a melting point of 148 to 157 °C. In the case of `COc1ccc(OCC(O)CN2CCN(c3ccccc3C(=O)O)CC2C)c(C(C)(C)C)c1` (centres undefined), the melting point is 205 to 208 °C. `CC[C@@]1(c2cc(F)cc(OCc3ccc4c(ccc(=O)n4C)c3)c2)CCO[C@H](C)C1` (racemic) yielded a melting point of 99 °C. `[N-]=[N+]=NCCCc1cc(-c2ccccc2)n(-c2ccc(S(N)(=O)=O)cc2)n1` showed a melting point of 114 to 116 °C.

In turn, `COC1(C(C)=O)CCC2C3CCC4=CC(=O)CCC4(C)C3CCC21C` (centres undefined) came in with a melting point of 196 to 197 °C.

Take `O=c1oc(-c2cccc(OC(F)F)c2)nc2ccccc12`: the melting point fell in the range of 84 to 87 °C. `C=CCOn1cnc2c(Cl)nc(N)nc21` came in with a melting point of 137 to 139 °C.

Consider `COc1ccccc1-c1ccc(S(=O)(=O)Nc2onc(C)c2Br)s1`, for which the melting point lay within 114 to 117 °C.

Molecule `O=C1CCc2cc(-c3cccnc3)ccc21` returned a melting point of 103 to 106 °C. The molecule `CCCN(CCC)C1CCc2c(ccc3[nH]cc(C(C)=O)c23)C1` (centres undefined) gave a melting point of 196 to 197 °C. To `COC(=O)C1=C(C)NC(C)=C(C(=O)OC/C=C/c2ccc(O)cc2)C1c1cccc([N+](=O)[O-])c1` (centres undefined) belongs 138 to 139 °C. `CN(C)C=NC(=O)c1cnn2c(-c3ccccc3)ccnc12` came in with a melting point of 198 to 202 °C. As for `COc1ccc(Cn2nc(NC(=O)c3cc(NC(=O)c4cc([N+](=O)[O-])nn4Cc4ccc(OC)cc4)nn3Cc3ccc(OC)cc3)cc2C(=O)O)cc1`, the melting point was in the range of 258 to 260 °C. Molecule `CC(C)c1[nH]c(=O)[nH]c1-c1cc(C(C)(C)C)c(O)c(C(C)(C)C)c1` displayed a melting point of more than 290 °C. The same measure for `CC(C)(O)CCCCCc1cccc(C=Cc2cc(CO)cc(CO)c2)c1`: 108 to 109 °C; for `Oc1ccc(OCCCCI)cc1`: 51 to 53 °C.

With `CCC(CO)Nc1nc(NCc2cccc(OC)c2O)c2ncn(C(C)C)c2n1` (racemic), the melting point lay within 120 to 122 °C. As for `CN1CCN(c2ccc(S(=O)(=O)Oc3cc(Cl)c(Cl)cc3Cl)cc2)C1=O`, the melting point fell in the range of 181 to 183 °C. The same measure for `CCCCCCCCCCCCCCc1onc(C(=O)NN)c1O`: 130 °C; for `CCOP(=O)(CNCc1ccnc(-c2cc(OC)c(O)c(OC)c2)c1)OCC`: 124 to 126 °C. For `CCCn1c2cc(C)ccc2c2oc(C(=O)Cl)cc21`, the melting point fell in the range of 130 to 132 °C. Molecule `S=c1[nH]ccn1C1CCCc2ccccc21` (centres undefined) showed a melting point of 188 to 189 °C. For `Cc1cccc(Nc2nc(-c3cc(-c4ccccc4)no3)cs2)n1`, the melting point lay within 291 to 293 °C. In turn, `Oc1nc(C2CC2)ncc1Br` showed a melting point of 200 °C. The molecule `COC(=O)c1cc(-c2c(OC)cccc2OC)n(-c2ccc(NS(=O)(=O)c3ccc(C)cc3)cc2CC(C)C)n1` returned a melting point of 224 °C.

The molecule `Cc1cc(C)c(NC(=O)OC(C)(C)C)c(C)c1` displayed a melting point of 73 to 73.5 °C. In the case of `CN(C)CCNC(=O)Nc1ccccc1`, the melting point was in the range of 141 to 142 °C. Consider `Nc1ccc(CCNCCCCCCNCCc2ccc(O)c(O)c2)cc1`, for which the melting point is more than 250 °C. To `Cc1cccc(COc2cccc(O)c2)c1C(=O)O` belongs 112 to 113 °C; to `Cc1cc(-c2ccc(Cl)c(C)c2)nc(-c2cccc(-c3ccc(S(N)(=O)=O)s3)c2)n1`, 240 °C. As for `N#Cc1ccc(C(=O)Nc2ccc(OCCN3CCOCC3)c3ccccc23)cc1`, the melting point lay in the range of 213 to 214 °C. For the molecule `CNC(=S)N1CCC23C=C[C@H](O)CC2Oc2c(OC)cc(Br)c(c23)C1` (some centres undefined), the melting point lay in the range of 183 to 185 °C. On to `NC(=O)c1cccc(OCc2cccc(Br)c2)c1`, for which the melting point fell in the range of 129 to 131 °C. Turning to `CCCc1nc(Nc2ccc3cn[nH]c3c2)nc(NC2CCN(S(C)(=O)=O)CC2)n1`, the melting point lay in the range of 219 to 221 °C. With `COc1ccc(S(=O)(=O)N2C(=O)C(c3ccccc3OC)(N3CCc4ccccc4[C@H]3C(=O)N(C)C)c3cc(Cl)ccc32)c(OC)c1` (some centres undefined), the melting point stood at 263 °C. As for `CC1(Cn2nc(-c3ccc(OC(F)(F)F)cc3)oc2=O)Cn2cc([N+](=O)[O-])nc2O1` (centres undefined), the melting point was in the range of 146 to 148 °C.

`COC(C)(CCCCCC(C)(C)O)c1cccc(C=Cc2cc(O)cc(O)c2)c1` (centres undefined) registered a melting point of 65 to 75 °C.

In turn, `CCc1c(C(=O)C(N)=O)c2c(N)cccc2n1Cc1ccccc1` had a melting point of 140 to 144 °C. The molecule `COC(=O)c1ccc(Nc2cccc3ccccc23)cc1` gave a melting point of 130 to 132 °C. `CC(=O)c1c[nH]c(C)n1` gave a melting point of 124 to 127 °C. `CNc1ccc(F)c(C#N)c1` yielded a melting point of 64 to 65 °C. Take `Cc1cccc(-c2nc3cccnn3c2-c2ccnc(NC(=O)Nc3ccccc3)c2)c1`: the melting point is 247 to 249 °C. The molecule `CC(C)(C)OC(=O)NS(N)(=O)=O` yielded a melting point of 130 to 131 °C. To `O=C(Oc1ccc([N+](=O)[O-])cc1)c1ccnc(F)c1` belongs 148 to 150 °C; to `Cc1cc(C)c(CO)c(-c2ccc(F)c(C)c2)c1`, 74 to 75 °C. In turn, `CCCCC(CC)COc1ccc2c(-c3ccc(CO)cc3)c3cc(OCC(CC)CCCC)ccc3c(-c3ccc(CO)cc3)c2c1` (centres undefined) gave a melting point of 110 to 112 °C. As for `Cc1noc(C)c1-c1ncccc1OC1SCC(O)C(O)C1O` (centres undefined), the melting point was determined as 112 °C. `OCc1nn(-c2ccc(Cl)cc2)c2c1CCC2` showed a melting point of 149 to 150 °C. In turn, `CCCN1C(=O)N2C[C@@H](Cc3ccccc3)N=C2c2c1nc(N1CCCC1)n2Cc1ccccc1` gave a melting point of 124 to 125 °C.

Turning to `COc1cc(COc2nn(C)cc2CO)ccc1OCc1nc(-c2ccccc2)oc1C`, the melting point was 108 to 109 °C. `O=C(OCC1(COC(=O)c2ccccc2)c2ccccc2-c2ccccc21)c1ccccc1` showed a melting point of 144 to 146 °C. In turn, `O=Cc1cc2cc(OCc3ccccc3)c(F)cc2nc1I` returned a melting point of 210 °C. Turning to `C1CCC(N2CCCC2)C2NCCCC2C1` (centres undefined), the melting point lay within 30 to 35 °C. To `CCOC(=O)c1cn(CCF)c2nc(N3CCN(C(C)=O)CC3)c(F)cc2c1=O` belongs 183 to 185 °C; to `O=C(NCC12CC3CC(CC(C3)C1)C2)c1c(Cl)ccc2nc(N3CCC[C@@H]3C(=O)O)ccc12`, 157 to 160 °C; to `O=C(Nc1c(C(O)(C(F)(F)F)C(F)(F)F)ccc2ccccc12)c1ccc(OC(F)(F)F)cc1`, 179 to 180 °C.

As to `O=C1NC(=O)C(Cc2ccc(OCCN3c4ccccc4Sc4ccccc43)cc2)S1` (centres undefined), the melting point was in the range of 68 to 70 °C. In turn, `CC(=O)Nc1ncc(C(C)=O)cc1C` had a melting point of 115 to 116 °C. Take `Fc1cccc(F)c1-c1ncc(C=Cc2ccc(Cl)cc2)nn1`: the melting point lay within 135 to 140 °C. To `O=C(NCC12CC3CC(CC(C3)C1)C2)c1cc(-c2cccnc2N2CCCC(C(=O)O)C2)ccc1Cl` (centres undefined) belongs 125 to 130 °C; to `N[C@@H](Cc1ccc(O)cc1)[C@H](O)C(F)(F)F`, 172 to 174 °C; to `Cc1cc(OC[C@@H]2CCC(=O)N2)cc(C)c1-c1cccc2c1OC[C@H]2Nc1ccc2c(c1)OC[C@H]2CC(=O)O`, 161 °C. To `Cc1cc(-c2cc(O)c(SCc3ccccc3)c(=O)o2)cc(C)n1` belongs 88 to 90 °C; to `Clc1ccc(-c2cc(OCCCN3CCCCC3)[nH]n2)cc1`, 140 °C. As for `COCOCc1cccc2c(=O)c(C(=O)O)c(-c3ccccc3)oc12`, the melting point lay within 142 to 143 °C. `Cc1cccc2c(-c3ccc(F)cc3)onc12` gave a melting point of 134 to 136 °C. In turn, `O=[N+]([O-])c1cnc2ccc(F)cc2c1O` gave a melting point of 313 °C. In turn, `CCc1c(C(=O)OC)[nH]c(=O)c(CC(C)C)[n+]1[O-]` gave a melting point of 143 to 146 °C. Regarding `CNC(=O)N1C2c3ccccc3OCC2(C(=O)OC)CN1C(=O)Nc1ccc(C(F)(F)F)cc1` (centres undefined), the melting point is 208 to 209 °C. `C=CCn1c2c(c3cc(OCCN(C)C)ccc31)C(=O)c1cc(OC)c(OC)cc1-2` gave a melting point of 138 °C. In the case of `Cc1ccc(CC2CCN(C(=O)CNc3ccc(NS(C)(=O)=O)cc3)CC2)cc1`, the melting point was 133 to 135 °C.

For the molecule `CC(C)(N)Cc1c[nH]c2ccccc12`, the melting point fell in the range of 72 to 74 °C. Molecule `CC(C)(C)C(=O)OC1C(c2ccccc2)=C(c2ccc(S(C)(=O)=O)cc2)C1(C)C` (centres undefined) yielded a melting point of 66 to 67 °C. For the molecule `Fc1ccc(-c2cc(Cl)c3cc(F)ccc3n2)cc1`, the melting point lay within 130 to 133 °C.
